From paper PMC8793051 (ACS Omega, 2022)

Columns and labels:
[1] = test system: NCI-H23; assay: NCI-60 SRB growth assay; format: cell-based, human
[2] = test system: SF-268; assay: NCI-60 SRB growth assay; format: cell-based, human
[3] = test system: HOP-92; assay: NCI-60 SRB growth assay; format: cell-based, human
[4] = test system: UACC-257; assay: NCI-60 SRB growth assay; format: cell-based, human
[5] = test system: HCT-15; assay: NCI-60 SRB growth assay; format: cell-based, human
[6] = test system: HEK; assay: MTT cytotoxicity assay; format: cell-based; conditions: Homo sapiens, HEK293, 48 h
[7] = test system: NCI-H522; assay: NCI-60 SRB growth assay; format: cell-based, human
[8] = test system: CCRF-CEM; assay: NCI-60 SRB growth assay; format: cell-based, human
[9] = test system: HT29; assay: NCI-60 SRB growth assay; format: cell-based, human
[10] = test system: SW-620; assay: NCI-60 SRB growth assay; format: cell-based, human
[11] = test system: MCF7; assay: NCI-60 SRB growth assay; format: cell-based, human
[12] = test system: LOX IMVI; assay: NCI-60 SRB growth assay; format: cell-based, human
[13] = test system: 786-0; assay: NCI-60 SRB growth assay; format: cell-based, human
[14] = test system: NCI/ADR-RES; assay: NCI-60 SRB growth assay; format: cell-based, human
[15] = test system: MDA-MB-468; assay: NCI-60 SRB growth assay; format: cell-based, human; conditions: MDA-MB-468
[16] = test system: OVCAR-4; assay: NCI-60 SRB growth assay; format: cell-based, human
[17] = test system: COLO 205; assay: NCI-60 SRB growth assay; format: cell-based, human
[18] = test system: MDA-MB-231/ATCC; assay: NCI-60 SRB growth assay; format: cell-based, human
[19] = test system: MOLT-4; assay: NCI-60 SRB growth assay; format: cell-based, human
[20] = test system: UO-31; assay: NCI-60 SRB growth assay; format: cell-based, human
[21] = test system: NCI-H226; assay: NCI-60 SRB growth assay; format: cell-based, human
[22] = test system: HCT-116; assay: NCI-60 SRB growth assay; format: cell-based, human
[23] = test system: A498; assay: NCI-60 SRB growth assay; format: cell-based, human
[24] = test system: RXF 393; assay: NCI-60 SRB growth assay; format: cell-based, human
[25] = test system: oligo-1: d(CGCGAATTCGCG)2; assay: UV thermal denaturation; format: binding
[26] = test system: KM12; assay: NCI-60 SRB growth assay; format: cell-based, human
[27] = test system: SR; assay: NCI-60 SRB growth assay; format: cell-based, human
[28] = test system: RPMI-8226; assay: NCI-60 SRB growth assay; format: cell-based, human
[29] = test system: SN12C; assay: NCI-60 SRB growth assay; format: cell-based, human
[30] = test system: UACC-62; assay: NCI-60 SRB growth assay; format: cell-based, human
[31] = test system: DU-145; assay: NCI-60 SRB growth assay; format: cell-based, human
[32] = test system: SF-295; assay: NCI-60 SRB growth assay; format: cell-based, human
[33] = test system: ACHN; assay: NCI-60 SRB growth assay; format: cell-based, human

SMILES: CCCCN1CCN(c2ccc3[nH]c(-c4ccc5[nH]c(-c6ccc(OCC)c(OCC)c6)nc5c4)nc3c2)CC1 [12a, 5-(4-Butylpiperazin-1-yl)-2-(2-(3,4-diethoxyphenyl)-1H-benzo[d]imidazol-5-yl)-1H-benzo[d]imidazole]
- GI50 ([1]; Homo sapiens, NCI-H23): 780 nM
- TGI ([1]; NCI–H23): 2350 nM
- GI50 ([2]; Homo sapiens, SF-268): 2660 nM
- CC50 ([2]; Homo sapiens, SF-268, read-out: LC50): > 100000 nM
- TGI ([2]; SF-268): 22000 nM
- TGI ([3]; HOP-92): 3170 nM
- GI50 ([3]; Homo sapiens, HOP-92): 1230 nM
- CC50 ([3]; Homo sapiens, HOP-92, read-out: LC50): 8150 nM
- GI50 ([4]; Homo sapiens, UACC-257): 1210 nM
- CC50 ([4]; Homo sapiens, UACC-257, read-out: LC50): > 100000 nM
- TGI ([4]; UACC-257): 10500 nM
- TGI ([5]; HCT-15): 3320 nM
- GI50 ([5]; Homo sapiens, HCT-15): 1560 nM
- CC50 ([5]; Homo sapiens, HCT-15, read-out: LC50): 7050 nM
- IC50 [6]: 2700 nM
- GI50 ([7]; Homo sapiens, NCI-H522): 1200 nM
- CC50 ([7]; Homo sapiens, NCI-H522, read-out: LC50): > 100000 nM
- TGI ([7]; NCI–H522): 3970 nM
- TGI [8]: 3060 nM
- GI50 ([8]; Homo sapiens): 530 nM
- CC50 ([8]; Homo sapiens, read-out: LC50): > 100000 nM
- TGI ([9]; HT29): 2970 nM
- GI50 ([9]; Homo sapiens, HT-29): 800 nM
- CC50 ([9]; Homo sapiens, HT-29, read-out: LC50): 100000 nM
- GI50 ([10]; Homo sapiens, SW-620): 470 nM
- CC50 ([10]; Homo sapiens, SW-620, read-out: LC50): 5150 nM
- TGI ([10]; SW620): 1790 nM
- TGI [11]: 1420 nM
- GI50 ([11]; Homo sapiens): 190 nM
- TGI [12]: 1620 nM
- GI50 ([12]; Homo sapiens): 420 nM
- TGI ([13]; 786–0): 2840 nM
- GI50 ([13]; Homo sapiens, 786-0): 1410 nM
- CC50 ([13]; Homo sapiens, 786-0, read-out: LC50): 5720 nM
- TGI [14]: 100000 nM
- GI50 ([14]; Homo sapiens): 100000 nM
- CC50 ([14]; Homo sapiens, read-out: LC50): > 100000 nM
- GI50 ([15]; Homo sapiens): 1270 nM
- TGI [15]: 3090 nM
- GI50 ([16]; Homo sapiens, OVCAR-4): 1480 nM
- CC50 ([16]; Homo sapiens, OVCAR-4, read-out: LC50): 6950 nM
- TGI ([16]; OVCAR-4): 3210 nM
- TGI ([17]; COLO 205): 1520 nM
- GI50 ([17]; Homo sapiens, COLO 205): 230 nM
- CC50 ([17]; Homo sapiens, COLO 205, read-out: LC50): 6180 nM
- GI50 ([18]; Homo sapiens, MDA-MB-231): 1690 nM
- CC50 ([18]; Homo sapiens, MDA-MB-231, read-out: LC50): 6380 nM
- TGI ([18]; MDA-MB-231): 3280 nM
- GI50 ([19]; Homo sapiens, MOLT-4): 1220 nM
- CC50 ([19]; Homo sapiens, MOLT-4, read-out: LC50): 31600 nM
- TGI ([19]; MOLT-4): 3860 nM
- GI50 ([20]; Homo sapiens, UO-31): 2000 nM
- CC50 ([20]; Homo sapiens, UO-31, read-out: LC50): 43800 nM
- TGI ([20]; UO-31): 5800 nM
- GI50 ([21]; Homo sapiens, NCI-H226): 1290 nM
- CC50 ([21]; Homo sapiens, NCI-H226, read-out: LC50): > 100000 nM
- TGI ([21]; NCI–H226): 3950 nM
- TGI ([22]; HCT-116): 1660 nM
- GI50 ([22]; Homo sapiens, HCT-116): 430 nM
- CC50 ([22]; Homo sapiens, HCT-116, read-out: LC50): 4300 nM
- TGI ([23]; A498): 2470 nM
- GI50 ([23]; Homo sapiens, A498): 1180 nM
- CC50 ([23]; Homo sapiens, A498, read-out: LC50): 5160 nM
- GI50 ([24]; Homo sapiens, RXF 393): 1010 nM
- TGI ([24]; RXF393): 2350 nM
- ΔTm ([25]; r = 0.5): 2 °C
- Tm ([25]; r = 0.5, oligo 2.5 μM): 56.7 °C
- Tm ([25]; r = 1): 57.7 °C
- ΔTm ([25]; r = 1): 3 °C
- Tm ([25]; r = 1.5): 58.7 °C
- ΔTm ([25]; r = 1.5): 4 °C
- Tm ([25]; r = 2.0): 61.7 °C
- ΔTm ([25]; r = 2.0): 7 °C
- GI50 ([26]; Homo sapiens, KM12): 1420 nM
- CC50 ([26]; Homo sapiens, KM12, read-out: LC50): 6280 nM
- TGI ([26]; KM12): 2990 nM
- TGI [27]: 1190 nM
- GI50 ([27]; Homo sapiens): 310 nM
- CC50 ([27]; Homo sapiens, read-out: LC50): > 100000 nM
- GI50 ([28]; Homo sapiens, RPMI-8226): 430 nM
- CC50 ([28]; Homo sapiens, RPMI-8226, read-out: LC50): > 100000 nM
- TGI ([28]; RPMI-8226): 2060 nM
- GI50 ([29]; Homo sapiens, SN12C): 1030 nM
- TGI ([29]; SN12c): 2610 nM
- GI50 ([30]; Homo sapiens, UACC-62): 680 nM
- CC50 ([30]; Homo sapiens, UACC-62, read-out: LC50): 5420 nM
- TGI ([30]; UACC-62): 2180 nM
- TGI ([31]; DU-145): 2210 nM
- GI50 ([31]; Homo sapiens, DU-145): 1000 nM
- CC50 ([31]; Homo sapiens, DU-145, read-out: LC50): 4880 nM
- GI50 ([32]; Homo sapiens, SF-295): 700 nM
- TGI ([32]; SF-265): 2260 nM
- TGI [33]: 2120 nM
- GI50 ([33]; Homo sapiens): 920 nM
- CC50 ([33]; Homo sapiens, read-out: LC50): 4650 nM
